Data taken from patent US20170190671A1, “BIS(ARYL)CATECHOL DERIVATIVES AS HERBICIDES” (E I DU PONT DE NEMOURS AND COMPANY, priority 2014, published 2017).

How the values were obtained:
Type in all cases: in vivo
[1] = test system: morningglory (Ipomoea coccinea); test: Test C preemergence; conditions: Ipomoea, pre-emergence, 336 h, scale 0 to 100, read-out: Plant response rating, Morningglory
How it was run: (§1)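 Treatment is preemergence to seeds in a loam and sand soil, or postemergence to plants 2 to 18 cm high in a peat moss-based medium. The compound is delivered in a non-phytotoxic solvent mixture including surfactant. Effects are judged by eye 13 to 15 days later on a 0 to 100 scale.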

[2] = test system: oilseed rape (Brassica napus); test: Test C preemergence; conditions: Brassica napus, pre-emergence, scale 0 to 100, read-out: Plant response rating, Oilseed Rape
How it was run: as §1

[3] = test system: large (Lg) crabgrass (Digitaria sanguinalis); test: Test C preemergence; conditions: Digitaria sanguinalis, pre-emergence, 336 h, scale 0 to 100, read-out: Plant response rating, Crabgrass, Large
How it was run: as §1

[4] = test system: velvetleaf (Abutilon theophrasti); test: Test C preemergence; conditions: Abutilon theophrasti, pre-emergence, scale 0 to 100, read-out: Plant response rating, Velvetleaf
How it was run: as §1

[5] = test system: yellow nutsedge (Cyperus esculentus); test: Test C preemergence; conditions: Cyperus, pre-emergence, 336 h, scale 0 to 100, read-out: Plant response rating, Nutsedge, Yellow
How it was run: as §1

[6] = test system: pigweed (Amaranthus retroflexus); test: Test C preemergence; conditions: Amaranthus retroflexus, pre-emergence, 336 h, scale 0 to 100, read-out: Plant response rating, Pigweed
How it was run: as §1

[7] = test system: winter wheat (Triticum aestivum); test: Test C preemergence; conditions: Triticum aestivum, pre-emergence, 336 h, scale 0 to 100, read-out: Plant response rating, Wheat
How it was run: as §1

[8] = test system: soybean (Glycine max); test: Test C preemergence; conditions: Glycine max, pre-emergence, scale 0 to 100, read-out: Plant response rating, Soybean
How it was run: as §1

[9] = test system: giant foxtail (Setaria faberii); test: Test C preemergence; conditions: Setaria faberi, pre-emergence, 336 h, scale 0 to 100, read-out: Plant response rating, Foxtail, Giant
How it was run: as §1

[10] = test system: johnsongrass (Sorghum halepense); test: Test C preemergence; conditions: Sorghum halepense, pre-emergence, 336 h, scale 0 to 100, read-out: Plant response rating, Johnsongrass
How it was run: as §1

[11] = test system: lambsquarters (Chenopodium album); test: Test C preemergence; conditions: Chenopodium album, pre-emergence, 336 h, scale 0 to 100, read-out: Plant response rating, Lambsquarters
How it was run: as §1

[12] = test system: ragweed (common ragweed, Ambrosia elatior); test: Test C preemergence; conditions: Ambrosia artemisiifolia, pre-emergence, 336 h, scale 0 to 100, read-out: Plant response rating, Ragweed
How it was run: as §1

[13] = test system: corn (Zea mays); test: Test C preemergence; conditions: Zea mays, pre-emergence, 336 h, scale 0 to 100
How it was run: as §1

[14] = test system: barnyardgrass (Echinochloa crus-galli); test: Test C preemergence; conditions: Echinochloa crus-galli, pre-emergence, read-out: Plant response rating, Barnyardgrass
How it was run: as §1

[15] = test system: blackgrass (Alopecurus myosuroides); test: Test C preemergence; conditions: Alopecurus myosuroides, pre-emergence, 336 h, scale 0 to 100, read-out: Plant response rating, Blackgrass
How it was run: as §1

[16] = test system: galium (catchweed bedstraw, Galium aparine); test: Test C preemergence; conditions: Galium, pre-emergence, 336 h, scale 0 to 100, read-out: Plant response rating, Galium
How it was run: as §1

[17] = test system: morningglory (Ipomoea coccinea); test: Test C postemergence; conditions: Ipomoea, post-emergence, 336 h, Postemergence, scale 0 to 100, read-out: Plant response rating, Morningglory
How it was run: as §1

[18] = test system: large (Lg) crabgrass (Digitaria sanguinalis); test: Test C postemergence; conditions: Digitaria sanguinalis, post-emergence, 336 h, Postemergence, scale 0 to 100, read-out: Plant response rating, Crabgrass, Large
How it was run: as §1

[19] = test system: velvetleaf (Abutilon theophrasti); test: Test C postemergence; conditions: Abutilon theophrasti, post-emergence, Postemergence, scale 0 to 100, read-out: Plant response rating, Velvetleaf
How it was run: as §1

[20] = test system: kochia (Kochia scoparia); test: Test C postemergence; conditions: Bassia scoparia, post-emergence, Postemergence, scale 0 to 100, read-out: Plant response rating, Kochia
How it was run: as §1

[21] = test system: winter wheat (Triticum aestivum); test: Test C postemergence; conditions: Triticum aestivum, post-emergence, 336 h, Postemergence, scale 0 to 100, read-out: Plant response rating, Wheat
How it was run: as §1

[22] = test system: galium (catchweed bedstraw, Galium aparine); test: Test C postemergence; conditions: Galium, post-emergence, 336 h, Postemergence, scale 0 to 100, read-out: Plant response rating, Galium
How it was run: as §1

N#Cc1cccc(Oc2ncc(Cl)cn2)c1Oc1cnc(Cl)cn1 [Compound 32, 2-[(5-chloro-2-pyrazinyl)oxy]-3-[(5-chloro-2-pyrimidinyl)oxy]benzonitrile]
pest or weed control at 31 g/ha ([1]; 31 g ai/ha, preemergence): 10% | pest or weed control at 62 g/ha ([1]; 62 g ai/ha, preemergence): 40% | pest or weed control at 125 g/ha ([1]; 125 g ai/ha, preemergence): 90% | pest or weed control at 16 g/ha ([1]; Preemergence, 16 g ai/ha): 20% | plant injury at 31 g/ha ([2]; 31 g ai/ha, preemergence): 95% | plant injury at 62 g/ha ([2]; 62 g ai/ha, preemergence): 95% | plant injury at 125 g/ha ([2]; 125 g ai/ha, preemergence): 95% | plant injury at 16 g/ha ([2]; Preemergence, 16 g ai/ha): 10% | pest or weed control at 31 g/ha ([3]; 31 g ai/ha, preemergence): 98% | pest or weed control at 62 g/ha ([3]; 62 g ai/ha, preemergence): 100% | pest or weed control at 125 g/ha ([3]; 125 g ai/ha, preemergence): 100% | pest or weed control at 16 g/ha ([3]; Preemergence, 16 g ai/ha): 98% | pest or weed control at 31 g/ha ([4]; 31 g ai/ha, preemergence): 40% | pest or weed control at 62 g/ha ([4]; 62 g ai/ha, preemergence): 75% | pest or weed control at 125 g/ha ([4]; 125 g ai/ha, preemergence): 85% | pest or weed control at 16 g/ha ([4]; Preemergence, 16 g ai/ha): 5% | pest or weed control at 31 g/ha ([5]; 31 g ai/ha, preemergence): 35% | pest or weed control at 62 g/ha ([5]; 62 g ai/ha, preemergence): 60% | pest or weed control at 125 g/ha ([5]; 125 g ai/ha, preemergence): 75% | pest or weed control at 16 g/ha ([5]; Preemergence, 16 g ai/ha): 5% | pest or weed control at 31 g/ha ([6]; 31 g ai/ha, preemergence): 100% | pest or weed control at 62 g/ha ([6]; 62 g ai/ha, preemergence): 100% | pest or weed control at 125 g/ha ([6]; 125 g ai/ha, preemergence): 100% | pest or weed control at 16 g/ha ([6]; Preemergence, 16 g ai/ha): 100% | plant injury at 31 g/ha ([7]; 31 g ai/ha, preemergence): 0% | plant injury at 62 g/ha ([7]; 62 g ai/ha, preemergence): 0% | plant injury at 125 g/ha ([7]; 125 g ai/ha, preemergence): 5% | plant injury at 16 g/ha ([7]; Preemergence, 16 g ai/ha): 0% | plant injury at 31 g/ha ([8]; 31 g ai/ha, preemergence): 45% | plant injury at 62 g/ha ([8]; 62 g ai/ha, preemergence): 45% | plant injury at 125 g/ha ([8]; 125 g ai/ha, preemergence): 90% | plant injury at 16 g/ha ([8]; Preemergence, 16 g ai/ha): 55% | pest or weed control at 31 g/ha ([9]; 31 g ai/ha, preemergence): 98% | pest or weed control at 62 g/ha ([9]; 62 g ai/ha, preemergence): 100% | pest or weed control at 125 g/ha ([9]; 125 g ai/ha, preemergence): 100% | pest or weed control at 16 g/ha ([9]; Preemergence, 16 g ai/ha): 85% | pest or weed control at 31 g/ha ([10]; 31 g ai/ha, preemergence): 85% | pest or weed control at 62 g/ha ([10]; 62 g ai/ha, preemergence): 100% | pest or weed control at 125 g/ha ([10]; 125 g ai/ha, preemergence): 100% | pest or weed control at 16 g/ha ([10]; Preemergence, 16 g ai/ha): 40% | pest or weed control at 31 g/ha ([11]; 31 g ai/ha, preemergence): 90% | pest or weed control at 62 g/ha ([11]; 62 g ai/ha, preemergence): 90% | pest or weed control at 125 g/ha ([11]; 125 g ai/ha, preemergence): 100% | pest or weed control at 16 g/ha ([11]; Preemergence, 16 g ai/ha): 60% | pest or weed control at 31 g/ha ([12]; 31 g ai/ha, preemergence): 20% | pest or weed control at 62 g/ha ([12]; 62 g ai/ha, preemergence): 10% | pest or weed control at 125 g/ha ([12]; 125 g ai/ha, preemergence): 50% | pest or weed control at 16 g/ha ([12]; Preemergence, 16 g ai/ha): 10% | Corn plant response rating (crop injury, 0 = no effect, 100 = complete kill) at 31 g/ha ([13]; 31 g ai/ha, preemergence): 60% | Corn plant response rating (crop injury, 0 = no effect, 100 = complete kill) at 62 g/ha ([13]; 62 g ai/ha, preemergence): 65% | Corn plant response rating (crop injury, 0 = no effect, 100 = complete kill) at 125 g/ha ([13]; 125 g ai/ha, preemergence): 65% | Corn plant response rating (crop injury, 0 = no effect, 100 = complete kill) at 16 g/ha ([13]; Preemergence, 16 g ai/ha): 5% | pest or weed control at 31 g/ha ([14]; 31 g ai/ha, preemergence, scale 0 to 100): 85% | pest or weed control at 62 g/ha ([14]; 62 g ai/ha, preemergence, scale 0 to 100): 98% | pest or weed control at 125 g/ha ([14]; 125 g ai/ha, preemergence, scale 0 to 100): 100% | pest or weed control at 16 g/ha ([14]; Preemergence, 16 g ai/ha, scale 0 to 100 (0 no effect, 100 complete control)): 50% | pest or weed control at 31 g/ha ([15]; 31 g ai/ha, preemergence): 70% | pest or weed control at 62 g/ha ([15]; 62 g ai/ha, preemergence): 90% | pest or weed control at 125 g/ha ([15]; 125 g ai/ha, preemergence): 95% | pest or weed control at 16 g/ha ([15]; Preemergence, 16 g ai/ha): 0% | pest or weed control at 31 g/ha ([16]; 31 g ai/ha, preemergence): 95% | pest or weed control at 62 g/ha ([16]; 62 g ai/ha, preemergence): 95% | pest or weed control at 125 g/ha ([16]; 125 g ai/ha, preemergence): 95% | pest or weed control at 16 g/ha ([16]; Preemergence, 16 g ai/ha): 10% | pest or weed control at 31 g/ha ([17]; 31 g ai/ha): 90% | pest or weed control at 62 g/ha ([17]; 62 g ai/ha): 95% | pest or weed control at 125 g/ha ([17]; 125 g ai/ha): 95% | pest or weed control at 16 g/ha ([18]; 16 g ai/ha): 5% | pest or weed control at 31 g/ha ([18]; 31 g ai/ha): 10% | pest or weed control at 62 g/ha ([18]; 62 g ai/ha): 20% | pest or weed control at 125 g/ha ([18]; 125 g ai/ha): 30% | pest or weed control at 31 g/ha ([19]; 31 g ai/ha): 55% | pest or weed control at 62 g/ha ([19]; 62 g ai/ha): 60% | pest or weed control at 125 g/ha ([19]; 125 g ai/ha): 75% | pest or weed control at 16 g/ha ([20]; 16 g ai/ha): 90% | pest or weed control at 31 g/ha ([20]; 31 g ai/ha): 90% | pest or weed control at 62 g/ha ([20]; 62 g ai/ha): 90% | pest or weed control at 125 g/ha ([20]; 125 g ai/ha): 90% | plant injury at 31 g/ha ([21]; 31 g ai/ha): 0% | plant injury at 62 g/ha ([21]; 62 g ai/ha): 0% | plant injury at 125 g/ha ([21]; 125 g ai/ha): 0% | pest or weed control at 16 g/ha ([22]; 16 g ai/ha): 80% | pest or weed control at 31 g/ha ([22]; 31 g ai/ha): 80% | pest or weed control at 62 g/ha ([22]; 62 g ai/ha): 95% | pest or weed control at 125 g/ha ([22]; 125 g ai/ha): 95%
